Measurements reported in US9133235B2, “Macrocyclic antagonists of the motilin receptor for treatment of gastrointestinal dysmotility disorders” (Ocera Therapeutics, Inc., priority 2006, dated 2015).
Read-outs that look alike come from different tables or passages of the source.

How the values were obtained:
Caco-2 cells = assay: Caco-2 permeability; assay type: in vitro ADME, human
From the text: H. Determination of Caco-2 Permeability
The Caco-2 cell line, derived from a human colorectal carcinoma, has become an established in vitro model for the prediction of drug absorption across the human intestine. (Sun, D.; Yu, L. X.; Hussain, M. A.; Wall, D. A.; Smith, R. L.; Amidon, G. L. Curr. Opin. Drug Discov. Devel. 2004, 7, 75-85; Bergstrom, C. A. Basic Clin. Pharmacol. Toxicol. 2005, 96, 156-61; Balimane, P. V.; Han, Y. H.; Chong, S. AAPS J 2006, 8, E1-13; Shah, P.; Jogani, V.; Bagchi, T.; Misra, A. Biotechnol. Prog. 2006, 22, 186-198) When cultured on semi-permeable membranes, Caco-2 cells differentiate into a highly functionalized epithelial barrier with remarkable morphological and biochemical similarity to the small intestinal columnar epithelium. Fully differentiated cell monolayers can be used to assess the membrane transport properties of novel compounds.
Permeability across the Caco-2 cell layer was determined by growing the cells on a membrane placed between two (donor and acceptor) chambers. Drug candidates are typically added to the apical (A) side of the cell layer and their appearance in the basolateral (B) side is measured over incubation time. Permeability in this direction represents intestinal absorption. Permeability may also be determined from the basolateral to the apical side of the Caco-2 cell. […]
Permeability (10 μM) for compounds of the invention in the apical to basolateral and basolateral to apical direction were tested in duplicate. Samples will be collected from the donor and acceptor chambers at the beginning (0 min) and following 60 min of incubation at 37° C. and stored frozen at −70° C. until bioanalysis. Samples for each test compound generated from the Caco-2 permeability assay were further analyzed by LC-MS-MS. The permeability of [^3H]-mannitol and [^3H]-propranolol were determined in parallel as controls.
The permeability coefficient (Papp) of each compound and radiolabeled standard was determined using the following equation:
[formula] where dQ/dT represents the permeability rate, Ci denotes the initial concentration in the donor compartment, and A represents the surface area of the filter. Ci is determined from the mean concentration of duplicate samples taken prior to addition to the donor compartment. Permeability rates were calculated by plotting the cumulative amount of compound measured in the acceptor compartment over time and determining the slope of the line by linear regression analysis. The duplicate and mean apical to basolateral and basolateral to apical Papp's were reported for each compound and standard.

[1] = Plasma concentrations of compound 552 in beagle dogs during the CID study; assay type: in vivo; conditions: male, dog, iv; for AUC(0-t): read-out: average AUC0-t (converted)
Method: The test article No. 2 (compound 552) was intravenously infused via an implanted catheter over 45 minutes to all the animals in Group 4 four days before the start of TA1 (irinotecan) treatment and throughout the 28-day study period. […] The daily dosage (i.e. 5.0, 15.0 and 5.0 mg/kg/day for Groups 2 to 4 respectively) was administered by two equal doses (i.e. 2.5, 7.5 and 2.5 mg/kg/occasion for Groups 2 to 4 respectively) which were separate by at least 6 h. Each dose was infused at a dose volume of 10 mL/kg/h. The vehicle for compound 552 was administered to all dogs in Group 5 by following the same dosing procedures and regimen for compound 552 administration for 23 days (from Day 6 to Day 28). The actual volume infused was calculated and adjusted based on the most recent practical body weight of each animal. The syringes/bags were changed at appropriate intervals as necessary and the weights recorded prior to the start and at the end of the infusion.
Body weights were recorded for all animals once prior to group assignment, and approximately one week prior to initiation of treatment. Body weights were recorded for all animals up to 1 day prior to dosing and twice weekly thereafter during the treatment/observation periods, as well as terminally prior to necropsy (fasted). Food consumption was measured daily during the week prior to treatment and throughout the treatment/observation periods. A series of blood samples (approximately 2.0 mL each) were removed from each dog in Groups 2 and 3 after the first (am) infusion on the first day of treatment with compound 552 and after the second (pm) infusion on the last day of treatment with compound 552. (Note: the second (pm) infusion on the first day of treatment with compound 552 was performed after completion of the last blood sampling). For this purpose, each dog was bled by venipuncture and the samples collected into tubes containing the anticoagulant, K2 EDTA. Tubes were placed on wet ice pending processing. On each occasion, samples were collected prior to the start of infusion, 5, 15, 30, 45, 50, 65, 95, 135 minutes, 3 and 6 hours after the start of infusion of compound 552. Following collection, the samples were centrifuged at approximately 1500×g, approximately 4° C., for at least 10 minutes and the resulting plasma recovered and dispensed into two aliquots and stored frozen (at approximately −80° C.) pending shipment.
Plasma concentrations of compound 552 in male beagle dogs receiving low and high intravenous doses of compound 552 as part of the above experiment were determined. Plasma samples were prepared for analysis by solid phase extraction and analyzed by LC-MS/MS. […] The average AUC0-t was similar on the first (78,233 ng·min/mL) and last day (83,047 ng·min/mL) of dosing for the low dose group (2.5 mg/kg/occasion) and was proportionally higher on the first day (246,073 ng·min/mL) of dosing for the high dose group (7.5 mg/kg/occasion).

Papp A to B (Caco-2 cells; 10 μM, apical to basolateral, 60 min, 37° C.) [cm/sec × 10^−6] | Papp B to A (Caco-2 cells; 10 μM, basolateral to apical, 60 min, 37° C.) [cm/sec × 10^−6] | B to A/A to B (Caco-2 cells; ratio of Papp) | Cmax ([1]; 2.5 mg/kg, 2.5 mg/kg 45-min infusion, first day of treatment) [ng/mL] | Cmax ([1]; 2.5 mg/kg, 2.5 mg/kg 45-min infusion, last day of treatment) [ng/mL] | AUC(0-t) ([1]; 2.5 mg/kg, low dose group 2.5 mg/kg/occasion, first day) [ng·h/mL] | AUC(0-t) ([1]; 2.5 mg/kg, low dose group 2.5 mg/kg/occasion, last day) [ng·h/mL] | Cmax ([1]; 7.5 mg/kg, 7.5 mg/kg 45-min infusion, first day of treatment) [ng/mL] | Cmax ([1]; 7.5 mg/kg, 7.5 mg/kg 45-min infusion, last day of treatment) [ng/mL] | AUC(0-t) ([1]; 7.5 mg/kg, high dose group 7.5 mg/kg/occasion, first day) [ng·h/mL] | AUC(0-t) ([1]; 7.5 mg/kg, high dose group 7.5 mg/kg/occasion, last day, one animal with particularly high AUC) [ng·h/mL] | Structure (SMILES)
5 | 11 | 2 |  |  |  |  |  |  |  |  | CC(C)[C@H]1NC(=O)[C@@H](Cc2cccc(C(F)(F)F)c2)NCCOc2ccccc2CCCNC(=O)[C@H](CN(C)C)NC1=O [Compound 502]
 |  |  | ~1500 | ~1800 | 1300 | 1380 | ~3400 | ~5000 | 4100 | 6350 | CCC[C@@H]1NC(=O)[C@@H](C(C)C)NC(=O)[C@@H](Cc2ccc(O)c(Cl)c2)N[C@@H](C)COc2ccccc2CCCNC1=O [Compound 552]
